# In ChEMBL document CHEMBL3991601, “The target landscape of clinical kinase drugs” (Science, 2017):
# Calls of active or inactive are those of the source.
# Target: Misshapen-like kinase 1 (Homo sapiens, UniProt Q8N4C8)
# Also: in the data inactive means no Kd found up to 30 µM.
# Chain of Misshapen-like kinase 1 (Q8N4C8 whole entry): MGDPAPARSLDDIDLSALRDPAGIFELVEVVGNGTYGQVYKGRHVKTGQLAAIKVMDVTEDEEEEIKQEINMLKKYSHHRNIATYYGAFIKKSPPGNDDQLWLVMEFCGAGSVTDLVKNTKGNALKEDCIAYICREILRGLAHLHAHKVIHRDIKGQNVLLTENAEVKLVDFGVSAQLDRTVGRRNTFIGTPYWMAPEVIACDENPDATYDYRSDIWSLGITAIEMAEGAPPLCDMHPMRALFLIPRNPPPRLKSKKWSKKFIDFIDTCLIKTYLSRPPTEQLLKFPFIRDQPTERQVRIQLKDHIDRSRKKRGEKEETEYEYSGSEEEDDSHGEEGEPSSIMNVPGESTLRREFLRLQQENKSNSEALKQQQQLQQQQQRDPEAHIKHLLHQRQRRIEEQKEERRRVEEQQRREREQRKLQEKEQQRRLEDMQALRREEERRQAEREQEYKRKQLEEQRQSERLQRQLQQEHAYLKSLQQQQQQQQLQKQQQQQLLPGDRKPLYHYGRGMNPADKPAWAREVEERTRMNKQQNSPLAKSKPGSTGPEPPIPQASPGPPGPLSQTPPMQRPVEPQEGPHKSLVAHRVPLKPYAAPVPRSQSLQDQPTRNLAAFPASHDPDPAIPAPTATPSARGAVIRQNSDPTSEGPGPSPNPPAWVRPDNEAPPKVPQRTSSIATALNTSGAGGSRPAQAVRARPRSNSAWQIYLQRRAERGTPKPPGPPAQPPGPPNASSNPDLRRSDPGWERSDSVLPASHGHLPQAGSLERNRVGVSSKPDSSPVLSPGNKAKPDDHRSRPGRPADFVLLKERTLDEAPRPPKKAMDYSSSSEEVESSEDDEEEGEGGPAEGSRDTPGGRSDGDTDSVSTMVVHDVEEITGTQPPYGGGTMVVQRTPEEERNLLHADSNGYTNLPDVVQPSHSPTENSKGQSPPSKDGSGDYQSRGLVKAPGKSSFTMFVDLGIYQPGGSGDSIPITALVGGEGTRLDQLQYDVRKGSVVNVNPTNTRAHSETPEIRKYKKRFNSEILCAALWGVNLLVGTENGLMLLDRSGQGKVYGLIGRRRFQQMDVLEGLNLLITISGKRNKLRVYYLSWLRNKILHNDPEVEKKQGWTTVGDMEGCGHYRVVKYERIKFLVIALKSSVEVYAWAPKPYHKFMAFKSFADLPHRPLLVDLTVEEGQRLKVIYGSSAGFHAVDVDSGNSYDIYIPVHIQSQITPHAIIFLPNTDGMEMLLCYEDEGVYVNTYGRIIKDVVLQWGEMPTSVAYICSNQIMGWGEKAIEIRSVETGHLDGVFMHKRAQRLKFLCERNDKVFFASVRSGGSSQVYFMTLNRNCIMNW
row,Compound,Kd
1,Cc1ccc(-n2nc(C(C)(C)C)cc2NC(=O)NCc2cc(F)ccc2Oc2ccc3c(cnn3CCO)c2)cc1 [PEXMETINIB],> 30 µM (inactive)
2,OCCn1cc(-c2cnc3nnn(Cc4ccc5ncccc5c4)c3n2)cn1 [PF-04217903],> 30 µM (inactive)
3,CNC(=O)CN1CCC(Oc2cc3c(Nc4cccc(Cl)c4F)ncnc3cc2OC)CC1 [SAPITINIB],> 30 µM (inactive)
4,CN1CCC(CNc2ccc3ncc(-c4cccc(OC(F)(F)F)c4)n3n2)CC1 [SGI-1776],> 30 µM (inactive)
5,CN1CCC(COc2cnc(-c3cccc(Cn4nc(-c5cccc(C#N)c5)ccc4=O)c3)nc2)CC1 [TEPOTINIB],> 30 µM (inactive)
6,O=c1sn(-c2cccc3ccccc23)c(=O)n1Cc1ccccc1 [TIDEGLUSIB],> 30 µM (inactive)
7,CC(=O)Nc1cccc(-n2c(=O)n(C3CC3)c(=O)c3c(Nc4ccc(I)cc4F)n(C)c(=O)c(C)c32)c1 [TRAMETINIB],> 30 µM (inactive)

# Target: T1, Dual specificity protein kinase TTK (Homo sapiens, UniProt P33981)
# T1 sequence (P33981 whole entry): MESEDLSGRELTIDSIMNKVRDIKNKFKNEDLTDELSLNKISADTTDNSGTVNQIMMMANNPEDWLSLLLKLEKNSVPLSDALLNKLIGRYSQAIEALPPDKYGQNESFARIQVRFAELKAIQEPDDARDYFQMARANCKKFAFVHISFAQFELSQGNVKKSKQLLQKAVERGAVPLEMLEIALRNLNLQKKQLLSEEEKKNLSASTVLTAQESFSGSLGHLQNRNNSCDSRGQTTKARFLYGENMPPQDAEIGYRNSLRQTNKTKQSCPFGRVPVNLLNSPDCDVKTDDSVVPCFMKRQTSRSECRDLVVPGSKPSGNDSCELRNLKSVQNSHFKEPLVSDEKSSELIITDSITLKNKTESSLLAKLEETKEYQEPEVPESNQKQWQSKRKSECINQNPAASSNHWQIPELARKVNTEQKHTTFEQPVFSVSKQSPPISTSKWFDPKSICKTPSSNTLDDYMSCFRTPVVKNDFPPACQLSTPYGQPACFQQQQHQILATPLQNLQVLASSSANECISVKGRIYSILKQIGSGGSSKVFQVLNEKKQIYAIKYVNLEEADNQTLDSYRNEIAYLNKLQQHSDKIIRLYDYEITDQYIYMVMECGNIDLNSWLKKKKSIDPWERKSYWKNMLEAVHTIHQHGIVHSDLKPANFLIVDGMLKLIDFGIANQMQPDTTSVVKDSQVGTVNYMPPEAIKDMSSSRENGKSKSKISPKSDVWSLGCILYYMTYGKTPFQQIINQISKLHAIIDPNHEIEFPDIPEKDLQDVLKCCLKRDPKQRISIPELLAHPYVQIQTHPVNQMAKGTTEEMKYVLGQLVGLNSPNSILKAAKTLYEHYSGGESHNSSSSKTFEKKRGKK
row,Compound,Kd
1,Cc1ccc(-n2nc(C(C)(C)C)cc2NC(=O)NCc2cc(F)ccc2Oc2ccc3c(cnn3CCO)c2)cc1 [PEXMETINIB],> 30 µM (inactive)
2,OCCn1cc(-c2cnc3nnn(Cc4ccc5ncccc5c4)c3n2)cn1 [PF-04217903],> 30 µM (inactive)
3,CNC(=O)CN1CCC(Oc2cc3c(Nc4cccc(Cl)c4F)ncnc3cc2OC)CC1 [SAPITINIB],> 30 µM (inactive)
4,CN1CCC(CNc2ccc3ncc(-c4cccc(OC(F)(F)F)c4)n3n2)CC1 [SGI-1776],> 30 µM (inactive)
5,CN1CCC(COc2cnc(-c3cccc(Cn4nc(-c5cccc(C#N)c5)ccc4=O)c3)nc2)CC1 [TEPOTINIB],> 30 µM (inactive)
6,O=c1sn(-c2cccc3ccccc23)c(=O)n1Cc1ccccc1 [TIDEGLUSIB],> 30 µM (inactive)
7,CC(=O)Nc1cccc(-n2c(=O)n(C3CC3)c(=O)c3c(Nc4ccc(I)cc4F)n(C)c(=O)c(C)c32)c1 [TRAMETINIB],> 30 µM (inactive)

# Target: Cyclin-dependent kinase 17 (Homo sapiens, UniProt Q00537)
# Sequence (Q00537 whole entry): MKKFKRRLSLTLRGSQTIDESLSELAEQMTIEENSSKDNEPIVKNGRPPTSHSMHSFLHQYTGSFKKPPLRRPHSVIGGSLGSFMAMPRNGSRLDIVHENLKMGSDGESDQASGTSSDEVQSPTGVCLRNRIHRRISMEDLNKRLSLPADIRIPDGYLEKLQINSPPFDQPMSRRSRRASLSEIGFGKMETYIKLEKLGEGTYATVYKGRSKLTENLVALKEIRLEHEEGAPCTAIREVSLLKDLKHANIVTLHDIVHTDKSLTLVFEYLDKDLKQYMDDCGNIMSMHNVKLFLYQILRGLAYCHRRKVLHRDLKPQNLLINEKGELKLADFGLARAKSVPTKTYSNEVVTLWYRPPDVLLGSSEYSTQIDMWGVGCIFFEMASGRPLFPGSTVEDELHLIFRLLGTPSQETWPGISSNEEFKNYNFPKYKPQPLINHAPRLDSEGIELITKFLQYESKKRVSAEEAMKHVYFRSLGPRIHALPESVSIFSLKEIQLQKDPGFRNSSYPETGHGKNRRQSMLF
row,Compound,Kd
1,Cc1ccc(-n2nc(C(C)(C)C)cc2NC(=O)NCc2cc(F)ccc2Oc2ccc3c(cnn3CCO)c2)cc1 [PEXMETINIB],0.402 µM (active)
2,OCCn1cc(-c2cnc3nnn(Cc4ccc5ncccc5c4)c3n2)cn1 [PF-04217903],> 30 µM (inactive)
3,CNC(=O)CN1CCC(Oc2cc3c(Nc4cccc(Cl)c4F)ncnc3cc2OC)CC1 [SAPITINIB],> 30 µM (inactive)
4,CN1CCC(CNc2ccc3ncc(-c4cccc(OC(F)(F)F)c4)n3n2)CC1 [SGI-1776],> 30 µM (inactive)
5,CN1CCC(COc2cnc(-c3cccc(Cn4nc(-c5cccc(C#N)c5)ccc4=O)c3)nc2)CC1 [TEPOTINIB],> 30 µM (inactive)
6,O=c1sn(-c2cccc3ccccc23)c(=O)n1Cc1ccccc1 [TIDEGLUSIB],> 30 µM (inactive)
7,CC(=O)Nc1cccc(-n2c(=O)n(C3CC3)c(=O)c3c(Nc4ccc(I)cc4F)n(C)c(=O)c(C)c32)c1 [TRAMETINIB],> 30 µM (inactive)

# Target: Choline-phosphate cytidylyltransferase A (Homo sapiens, UniProt P49585)
# Sequence (P49585 whole entry): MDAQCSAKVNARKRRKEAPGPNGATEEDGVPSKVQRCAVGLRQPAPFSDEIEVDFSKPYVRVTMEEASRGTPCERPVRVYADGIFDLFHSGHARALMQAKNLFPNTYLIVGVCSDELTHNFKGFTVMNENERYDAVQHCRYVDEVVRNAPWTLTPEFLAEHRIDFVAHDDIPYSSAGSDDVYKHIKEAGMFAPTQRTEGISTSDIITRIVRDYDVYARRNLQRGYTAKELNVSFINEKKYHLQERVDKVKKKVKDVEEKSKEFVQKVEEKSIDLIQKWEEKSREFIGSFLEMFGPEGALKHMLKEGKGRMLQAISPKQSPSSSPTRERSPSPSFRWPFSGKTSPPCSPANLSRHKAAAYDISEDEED
row,Compound,Kd
1,Cc1ccc(-n2nc(C(C)(C)C)cc2NC(=O)NCc2cc(F)ccc2Oc2ccc3c(cnn3CCO)c2)cc1 [PEXMETINIB],> 30 µM (inactive)
2,OCCn1cc(-c2cnc3nnn(Cc4ccc5ncccc5c4)c3n2)cn1 [PF-04217903],> 30 µM (inactive)
3,CNC(=O)CN1CCC(Oc2cc3c(Nc4cccc(Cl)c4F)ncnc3cc2OC)CC1 [SAPITINIB],> 30 µM (inactive)
4,CN1CCC(CNc2ccc3ncc(-c4cccc(OC(F)(F)F)c4)n3n2)CC1 [SGI-1776],> 30 µM (inactive)
5,CC(=O)Nc1cccc(-n2c(=O)n(C3CC3)c(=O)c3c(Nc4ccc(I)cc4F)n(C)c(=O)c(C)c32)c1 [TRAMETINIB],> 30 µM (inactive)

# Target: T2, Cyclin-dependent kinase-like 5 (Homo sapiens, UniProt O76039)
# T2 sequence (O76039 whole entry): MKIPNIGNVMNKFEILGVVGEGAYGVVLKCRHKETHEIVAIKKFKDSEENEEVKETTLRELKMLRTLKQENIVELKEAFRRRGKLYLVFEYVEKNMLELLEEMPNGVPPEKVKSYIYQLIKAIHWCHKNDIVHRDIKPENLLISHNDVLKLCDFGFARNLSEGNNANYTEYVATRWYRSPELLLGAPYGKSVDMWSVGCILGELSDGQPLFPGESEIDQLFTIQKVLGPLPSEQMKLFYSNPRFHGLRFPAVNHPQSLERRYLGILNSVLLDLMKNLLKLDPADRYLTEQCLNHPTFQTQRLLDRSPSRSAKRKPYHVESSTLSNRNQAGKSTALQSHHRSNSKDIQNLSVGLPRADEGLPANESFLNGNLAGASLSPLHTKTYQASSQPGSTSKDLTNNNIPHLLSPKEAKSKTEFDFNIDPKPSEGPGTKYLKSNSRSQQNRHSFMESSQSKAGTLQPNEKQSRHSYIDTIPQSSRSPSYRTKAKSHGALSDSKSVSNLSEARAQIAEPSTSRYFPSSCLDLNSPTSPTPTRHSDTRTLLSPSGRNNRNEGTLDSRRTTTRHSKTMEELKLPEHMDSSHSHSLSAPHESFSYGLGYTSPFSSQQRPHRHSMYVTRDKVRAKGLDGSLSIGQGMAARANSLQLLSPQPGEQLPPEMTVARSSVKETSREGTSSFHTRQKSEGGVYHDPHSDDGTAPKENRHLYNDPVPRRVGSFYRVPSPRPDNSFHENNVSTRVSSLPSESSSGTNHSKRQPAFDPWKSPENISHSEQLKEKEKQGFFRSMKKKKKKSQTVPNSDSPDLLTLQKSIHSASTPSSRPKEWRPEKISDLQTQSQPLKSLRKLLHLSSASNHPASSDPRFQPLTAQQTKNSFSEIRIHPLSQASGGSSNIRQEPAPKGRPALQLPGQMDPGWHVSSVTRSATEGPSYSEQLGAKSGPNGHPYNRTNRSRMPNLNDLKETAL
row,Compound,Kd
1,OCCn1cc(-c2cnc3nnn(Cc4ccc5ncccc5c4)c3n2)cn1 [PF-04217903],> 30 µM (inactive)
2,CNC(=O)CN1CCC(Oc2cc3c(Nc4cccc(Cl)c4F)ncnc3cc2OC)CC1 [SAPITINIB],> 30 µM (inactive)
3,CN1CCC(CNc2ccc3ncc(-c4cccc(OC(F)(F)F)c4)n3n2)CC1 [SGI-1776],> 30 µM (inactive)
4,O=c1sn(-c2cccc3ccccc23)c(=O)n1Cc1ccccc1 [TIDEGLUSIB],> 30 µM (inactive)
5,CC(=O)Nc1cccc(-n2c(=O)n(C3CC3)c(=O)c3c(Nc4ccc(I)cc4F)n(C)c(=O)c(C)c32)c1 [TRAMETINIB],> 30 µM (inactive)

# Target: Cyclin-dependent kinase 2 (Homo sapiens, UniProt P24941)
row,Compound,Kd
1,Cc1ccc(-n2nc(C(C)(C)C)cc2NC(=O)NCc2cc(F)ccc2Oc2ccc3c(cnn3CCO)c2)cc1 [PEXMETINIB],> 30 µM (inactive)
2,OCCn1cc(-c2cnc3nnn(Cc4ccc5ncccc5c4)c3n2)cn1 [PF-04217903],> 30 µM (inactive)
3,CNC(=O)CN1CCC(Oc2cc3c(Nc4cccc(Cl)c4F)ncnc3cc2OC)CC1 [SAPITINIB],> 30 µM (inactive)
4,CN1CCC(CNc2ccc3ncc(-c4cccc(OC(F)(F)F)c4)n3n2)CC1 [SGI-1776],> 30 µM (inactive)
5,O=c1sn(-c2cccc3ccccc23)c(=O)n1Cc1ccccc1 [TIDEGLUSIB],> 30 µM (inactive)
6,CC(=O)Nc1cccc(-n2c(=O)n(C3CC3)c(=O)c3c(Nc4ccc(I)cc4F)n(C)c(=O)c(C)c32)c1 [TRAMETINIB],> 30 µM (inactive)

# Target: Dual specificity protein kinase CLK4 (Homo sapiens, UniProt Q9HAZ1)
# Sequence (Q9HAZ1 whole entry): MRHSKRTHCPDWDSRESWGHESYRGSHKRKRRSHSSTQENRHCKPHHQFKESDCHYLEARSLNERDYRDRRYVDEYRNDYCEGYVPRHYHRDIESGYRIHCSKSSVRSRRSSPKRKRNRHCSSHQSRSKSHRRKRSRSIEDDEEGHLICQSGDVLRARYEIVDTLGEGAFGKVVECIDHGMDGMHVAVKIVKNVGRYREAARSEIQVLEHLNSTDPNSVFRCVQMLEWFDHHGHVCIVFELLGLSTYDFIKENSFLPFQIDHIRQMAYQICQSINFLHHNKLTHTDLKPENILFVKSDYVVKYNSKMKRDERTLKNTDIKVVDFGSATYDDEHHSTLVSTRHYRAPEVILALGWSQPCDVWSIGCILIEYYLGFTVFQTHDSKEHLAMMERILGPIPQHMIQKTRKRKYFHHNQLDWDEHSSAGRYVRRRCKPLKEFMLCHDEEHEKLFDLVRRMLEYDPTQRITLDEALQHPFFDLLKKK
row,Compound,Kd
1,Cc1ccc(-n2nc(C(C)(C)C)cc2NC(=O)NCc2cc(F)ccc2Oc2ccc3c(cnn3CCO)c2)cc1 [PEXMETINIB],> 30 µM (inactive)
2,CNC(=O)CN1CCC(Oc2cc3c(Nc4cccc(Cl)c4F)ncnc3cc2OC)CC1 [SAPITINIB],> 30 µM (inactive)
3,O=c1sn(-c2cccc3ccccc23)c(=O)n1Cc1ccccc1 [TIDEGLUSIB],> 30 µM (inactive)
4,CC(=O)Nc1cccc(-n2c(=O)n(C3CC3)c(=O)c3c(Nc4ccc(I)cc4F)n(C)c(=O)c(C)c32)c1 [TRAMETINIB],> 30 µM (inactive)

# Target: Mitogen-activated protein kinase 14 (Homo sapiens, UniProt Q16539)
# Sequence (Q16539 whole entry): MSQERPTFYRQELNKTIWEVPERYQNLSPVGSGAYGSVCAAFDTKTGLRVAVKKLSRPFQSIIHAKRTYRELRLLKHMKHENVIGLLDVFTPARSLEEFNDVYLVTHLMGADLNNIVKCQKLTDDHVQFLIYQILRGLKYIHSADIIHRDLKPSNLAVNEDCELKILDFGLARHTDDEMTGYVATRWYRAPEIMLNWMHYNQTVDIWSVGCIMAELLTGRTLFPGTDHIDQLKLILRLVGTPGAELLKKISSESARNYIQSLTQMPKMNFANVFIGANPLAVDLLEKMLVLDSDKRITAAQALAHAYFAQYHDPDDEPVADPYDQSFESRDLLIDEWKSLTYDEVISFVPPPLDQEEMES
row,Compound,Kd
1,CNC(=O)CN1CCC(Oc2cc3c(Nc4cccc(Cl)c4F)ncnc3cc2OC)CC1 [SAPITINIB],> 30 µM (inactive)
2,CN1CCC(CNc2ccc3ncc(-c4cccc(OC(F)(F)F)c4)n3n2)CC1 [SGI-1776],> 30 µM (inactive)
3,O=c1sn(-c2cccc3ccccc23)c(=O)n1Cc1ccccc1 [TIDEGLUSIB],> 30 µM (inactive)
4,CC(=O)Nc1cccc(-n2c(=O)n(C3CC3)c(=O)c3c(Nc4ccc(I)cc4F)n(C)c(=O)c(C)c32)c1 [TRAMETINIB],> 30 µM (inactive)

# Target: Guanine nucleotide-binding protein G(i) subunit alpha-2 (Homo sapiens, UniProt P04899)
# Sequence (P04899 whole entry): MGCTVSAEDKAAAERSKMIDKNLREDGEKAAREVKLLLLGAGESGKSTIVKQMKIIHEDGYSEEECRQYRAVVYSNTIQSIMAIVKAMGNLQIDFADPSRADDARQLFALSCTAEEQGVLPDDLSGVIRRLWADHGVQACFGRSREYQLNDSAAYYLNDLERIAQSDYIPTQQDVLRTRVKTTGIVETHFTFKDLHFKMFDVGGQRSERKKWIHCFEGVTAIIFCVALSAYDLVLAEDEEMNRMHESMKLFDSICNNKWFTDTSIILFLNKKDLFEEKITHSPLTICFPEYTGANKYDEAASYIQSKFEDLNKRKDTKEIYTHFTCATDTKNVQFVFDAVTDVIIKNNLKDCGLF
row,Compound,Kd
1,Cc1ccc(-n2nc(C(C)(C)C)cc2NC(=O)NCc2cc(F)ccc2Oc2ccc3c(cnn3CCO)c2)cc1 [PEXMETINIB],> 30 µM (inactive)
2,OCCn1cc(-c2cnc3nnn(Cc4ccc5ncccc5c4)c3n2)cn1 [PF-04217903],> 30 µM (inactive)
3,CNC(=O)CN1CCC(Oc2cc3c(Nc4cccc(Cl)c4F)ncnc3cc2OC)CC1 [SAPITINIB],> 30 µM (inactive)
4,CN1CCC(CNc2ccc3ncc(-c4cccc(OC(F)(F)F)c4)n3n2)CC1 [SGI-1776],> 30 µM (inactive)
5,CN1CCC(COc2cnc(-c3cccc(Cn4nc(-c5cccc(C#N)c5)ccc4=O)c3)nc2)CC1 [TEPOTINIB],> 30 µM (inactive)
6,CC(=O)Nc1cccc(-n2c(=O)n(C3CC3)c(=O)c3c(Nc4ccc(I)cc4F)n(C)c(=O)c(C)c32)c1 [TRAMETINIB],> 30 µM (inactive)

# Target: T3, Long-chain-fatty-acid--CoA ligase 5 (Homo sapiens, UniProt Q9ULC5)
# T3 sequence (Q9ULC5 whole entry): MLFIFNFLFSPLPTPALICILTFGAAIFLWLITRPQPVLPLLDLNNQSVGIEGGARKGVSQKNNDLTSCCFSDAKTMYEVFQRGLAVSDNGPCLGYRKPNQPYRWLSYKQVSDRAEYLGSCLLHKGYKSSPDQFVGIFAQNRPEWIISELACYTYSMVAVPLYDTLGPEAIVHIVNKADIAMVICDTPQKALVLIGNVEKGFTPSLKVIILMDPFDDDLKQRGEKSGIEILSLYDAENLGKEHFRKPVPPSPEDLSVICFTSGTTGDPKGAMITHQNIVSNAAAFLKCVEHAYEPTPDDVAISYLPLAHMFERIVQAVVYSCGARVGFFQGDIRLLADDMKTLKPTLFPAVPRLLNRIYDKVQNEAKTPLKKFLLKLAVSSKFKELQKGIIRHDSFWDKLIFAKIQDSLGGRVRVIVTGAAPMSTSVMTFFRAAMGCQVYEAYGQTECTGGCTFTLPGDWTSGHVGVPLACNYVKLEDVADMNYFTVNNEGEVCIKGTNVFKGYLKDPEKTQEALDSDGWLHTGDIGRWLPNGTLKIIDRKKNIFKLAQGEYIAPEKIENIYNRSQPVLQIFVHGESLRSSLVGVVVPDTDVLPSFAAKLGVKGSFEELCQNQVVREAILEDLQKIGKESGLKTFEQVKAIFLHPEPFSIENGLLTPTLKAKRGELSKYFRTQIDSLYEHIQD
row,Compound,Kd
1,Cc1ccc(-n2nc(C(C)(C)C)cc2NC(=O)NCc2cc(F)ccc2Oc2ccc3c(cnn3CCO)c2)cc1 [PEXMETINIB],> 30 µM (inactive)
2,OCCn1cc(-c2cnc3nnn(Cc4ccc5ncccc5c4)c3n2)cn1 [PF-04217903],> 30 µM (inactive)
3,CNC(=O)CN1CCC(Oc2cc3c(Nc4cccc(Cl)c4F)ncnc3cc2OC)CC1 [SAPITINIB],> 30 µM (inactive)
4,CN1CCC(CNc2ccc3ncc(-c4cccc(OC(F)(F)F)c4)n3n2)CC1 [SGI-1776],> 30 µM (inactive)
5,CN1CCC(COc2cnc(-c3cccc(Cn4nc(-c5cccc(C#N)c5)ccc4=O)c3)nc2)CC1 [TEPOTINIB],> 30 µM (inactive)
6,O=c1sn(-c2cccc3ccccc23)c(=O)n1Cc1ccccc1 [TIDEGLUSIB],> 30 µM (inactive)
